Reference: patent publication US20230295201A1 (Gilead Sciences, Inc., priority 2020, published 2023)
Where two headings read alike, the source gives them in different places.

Experiments:
Format in all cases: cell-based
HRV16 = HRV16 HELA EC50 (cytopathic effect in H1-HeLa cells)
Method in brief: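 Read-out is luminescent cell viability (CellTiter-Glo) after 96 h of infection at 33 °C, scaled between uninfected and infected-untreated wells. Before infection with titrated virus, compounds went onto H1-HeLa cells as triplicate 3-fold dilution series.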

RSV strain A2 = assay: RSV HEp-2 EC50 (infectious cytopathic cell protection assay); conditions: read-out: RSV HEp-2 EC50
Method in brief: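 Percent inhibition of RSV-induced cytopathic effect came from remaining cell viability (CellTiter-Glo luminescence) after 4 days at 37° C. Compounds in 3-fold serial dilutions were exposed to an infectious mix of titered A2 virus and HEp-2 cells at 50,000/ml, with 0% and 100% inhibition control standards.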

DENV2 replicon = assay: DENV-2 Huh-7 Rep EC50 (replicon luminescence); conditions: read-out: DENV-2 Huh-7 Rep EC50
Method in brief: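 EC50 derived from luminescence dose-response, normalised to DMSO-only 0% inhibition wells, after 1.5 h with EnduRen substrate. Compounds were first exposed for 48 h at 37° C to DENV2 replicon Huh-7 cells (5,000/well).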

RSV A2 = assay: RSV NHBE EC50 (RSV A2 antiviral assay in normal human bronchial epithelial cells); conditions: read-out: RSV NHBE EC50
[1] = 96 h, H1-HeLa cells, 33° C., read-out: HRV16 HELA EC50
[2] = human respiratory syncytial virus, HEp-2, 96 h, HEp-2 cells, RSV A2, 4 days
[3] = Dengue virus, DENV2, Huh-7, 48 h, Huh-7 replicon cells, 48 hours
[4] = human respiratory syncytial virus, NHBE, 96 h, NHBE cells, RSV A2, 4 days

SMILES	EC50 (HRV16; [1]) [µM]	EC50 (RSV strain A2; [2]) [µM]	EC50 (DENV2 replicon; [3]) [µM]	EC50 (RSV A2; [4]) [µM]	further results
N#C[C@]1(COP(=O)(NCC(=O)OC2CCCC2)Oc2ccccc2)O[C@@H](c2ccc3c(N)ncnn23)[C@H](O)[C@@H]1O (mixture of isomers) [Example 112, cyclopentyl 2-(((((2R,3S,4R,5S)-5-(4-aminopyrrolo[2,1-f][1,2,4]triazin-7-yl)-2-cyano-3,4-dihydroxytetrahydrofuran-2-yl)methoxy)(phenoxy)phosphoryl)amino)acetate]	3.69	1.41	> 50	0.464	–
N#C[C@]1(COP(=O)(NCCOC(=O)C2CCCCC2)Oc2ccccc2)O[C@@H](c2ccc3c(N)ncnn23)[C@H](O)[C@@H]1O (stereo partly drawn) [Example 166, 2-(((((2R,3S,4R,5S)-5-(4-aminopyrrolo[2,1-f][1,2,4]triazin-7-yl)-2-cyano-3,4-dihydroxytetrahydrofuran-2-yl)methoxy)(phenoxy)phosphoryl)amino)ethyl cyclohexane carboxylate]	0.336	0.083	22.1	0.624	–
N#C[C@]1(COP(=O)(NCC(=O)OC2CCCC2)Oc2ccccc2)O[C@@H](c2ccc3c(N)ncnn23)[C@H](O)[C@@H]1O (single isomer, unassigned) [Example 113]	2.64	0.611	42.7	0.352	–
C[C@H](NP(=O)(OC[C@@]1(C#N)O[C@@H](c2ccc3c(N)ncnn23)[C@H](O)[C@@H]1O)Oc1ccccc1)C(=O)OCC1CCOCC1 (stereo partly drawn) [Example 20, (tetrahydro-2H-pyran-4-yl)methyl ((((2R,3S,4R,5S)-5-(4-aminopyrrolo[2,1-f][1,2,4]triazin-7-yl)-2-cyano-3,4-dihydroxytetrahydrofuran-2-yl)methoxy)(phenoxy)phosphoryl)-L-alaninate]	4.88	0.877	> 50	2.23	–
CC(=O)N1CCC(OC(=O)C(C)NP(=O)(OC[C@@]2(C#N)O[C@@H](c3ccc4c(N)ncnn34)[C@H](O)[C@@H]2O)Oc2ccccc2)CC1 (stereo partly drawn) [Example 185, 1-acetylpiperidin-4-yl ((((2R,3S,4R,5S)-5-(4-aminopyrrolo[2,1-f][1,2,4]triazin-7-yl)-2-cyano3,4-dihydroxytetrahydrofuran-2-yl)methoxy)(phenoxy)phosphoryl)alaninate]	> 80.2	7.94	> 100	> 5	–
CC(C)OC(=O)[C@H](C)N[P@@](=O)(OC[C@@]1(C#N)O[C@@H](c2ccc3c(N)ncnn23)[C@H](O)[C@@H]1O)Oc1ccccc1 (single isomer, unassigned) [Example 78]	2.26	2.04	> 50	1.77	–
CCCCOC(=O)CC[C@H](NP(=O)(OC[C@@]1(C#N)O[C@@H](c2ccc3c(N)ncnn23)[C@H](O)[C@@H]1O)Oc1ccccc1)C(=O)OC1CCCCC1 (stereo partly drawn) [Example 229, 5-butyl 1-cyclohexyl ((((2R,3S,4R,5S)-5-(4-aminopyrrolo [2,1-f][1,2,4]triazin-7-yl)-2-cyano-3,4-dihydroxytetrahydrofuran-2-yl)methoxy)(phenoxy)phosphoryl)-L-glutamate]	> 40.2	> 13.3	31.4	> 5	–
CCOC(=O)C1CCCN1P(=O)(OC[C@@]1(C#N)O[C@@H](c2ccc3c(N)ncnn23)[C@H](O)[C@@H]1O)Oc1ccccc1 (stereo in doubt) [Example 117, (2R)-ethyl 1-((((2R,3S,4R,5S)-5-(4-aminopyrrolo[2,1-f][1,2,4]triazin-7-yl)-2-cyano-3,4-dihydroxytetrahydrofuran-2-yl)methoxy)(phenoxy)phosphoryl)pyrrolidine-2-carboxylate]	–	–	–	–	EC50 (HRV16; 96 h, read-out: HRV16 HELA EC50): > 100 µM; EC50 (RSV strain A2; human respiratory syncytial virus, HEp-2, 96 h): > 100 µM; EC50 (DENV2 replicon; Dengue virus, DENV2, Huh-7, 48 h): > 100 µM; EC50 (RSV A2; human respiratory syncytial virus, NHBE, 96 h): > 5 µM
C[C@H](NP(=O)(OC[C@@]1(C#N)O[C@@H](c2ccc3c(N)ncnn23)[C@H](O)[C@@H]1O)Oc1ccccc1)C(=O)OC1CCCCCC1 (stereo partly drawn) [Example 134, (2S)-cycloheptyl 2-(((((2R,3S,4R,5S)-5-(4-aminopyrrolo[2,1-f][1,2,4]triazin-7-yl)-2-cyano-3,4-dihydroxytetrahydrofuran-2-yl)methoxy)(phenoxy)phosphoryl)amino)propanoate]	0.247	0.334	24.7	0.052	–
C[C@H](N)C(=O)OCCNP(=O)(OC[C@@]1(C#N)O[C@@H](c2ccc3c(N)ncnn23)[C@H](O)[C@@H]1O)Oc1ccccc1 (stereo partly drawn) [Example 133, 2-(((((2R,3S,4R,5S)-5-(4-aminopyrrolo[2,1-f][1,2,4]triazin-7-yl)-2-cyano-3,4-dihydroxytetrahydrofuran-2-yl)methoxy)(phenoxy)phosphoryl)amino)ethyl L-alaninate]	16.5	4.72	> 50	> 5	–
CCC(CC)COC(=O)[C@H](CC(C)C)NP(=O)(OC[C@@]1(C#N)O[C@@H](c2ccc3c(N)ncnn23)[C@H](O)[C@@H]1O)Oc1ccccc1 (single isomer, unassigned) [Example 129]	41.6	–	26.7	–	EC50 (RSV strain A2; HEp-2 cells, RSV A2, 4 days): 42.9 µM; EC50 (RSV A2; NHBE cells, RSV A2, 4 days): > 5 µM
C[C@H](NP(=O)(OC[C@@]1(C#N)O[C@@H](c2ccc3c(N)ncnn23)[C@H](O)[C@@H]1O)Oc1ccccc1)C(=O)O[C@H]1CC[C@H](c2ccccc2)CC1 (stereo partly drawn) [Example 186, trans-4-phenylcyclohexyl ((((2R,3S,4R,5S)-5-(4-aminopyrrolo[2,1-f][1,2,4]triazin-7-yl)-2-cyano-3,4-dihydroxytetrahydrofuran-2-yl)methoxy)(phenoxy)phosphoryl)-L-alaninate]	4.75	2.77	60.3	0.07	–
C[C@H](N[P@@](=O)(OC[C@@]1(C#N)O[C@@H](c2ccc3c(N)ncnn23)[C@H](O)[C@@H]1O)Oc1ccccc1)C(=O)O[C@H]1CC[C@H](C(F)(F)F)CC1 (single isomer, unassigned) [Example 17]	0.489	0.308	53.7	0.088	–
CCC(CC)COC(=O)[C@H](CCCCN)NP(=O)(OC[C@@]1(C#N)O[C@@H](c2ccc3c(N)ncnn23)[C@H](O)[C@@H]1O)Oc1ccccc1 (mixture of isomers) [Example 91, (2S)-2-ethylbutyl 6-amino-2-(((((2R,3S,4R,5S)-5-(4-aminopyrrolo[2,1-f][1,2,4]triazin-7-yl)-2-cyano-3,4-dihydroxytetrahydrofuran-2-yl)methoxy)(phenoxy)phosphoryl)amino)hexanoate]	> 50	12.1	> 50	> 5	–
CCC(CC)COC(=O)[C@@H](NP(=O)(OC[C@@]1(C#N)O[C@@H](c2ccc3c(N)ncnn23)[C@H](O)[C@@H]1O)Oc1ccccc1)C1CCCCC1 (stereo partly drawn) [Example 116, (2S)-2-ethylbutyl 2-(((((2R,3S,4R,5S)-5-(4-aminopyrrolo[2,1-f][1,2,4]triazin-7-yl)-2-cyano-3,4-dihydroxytetrahydrofuran-2-yl)methoxy)(phenoxy)phosphoryl)amino)-2-cyclohexylacetate]	> 31.9	> 100	11.7	> 5	–
CCCOC(=O)C(C)NP(=O)(OCC1(C#N)OC(c2ccc3c(N)ncnn23)C(O)C1O)Oc1ccccc1 (single isomer, unassigned) [Example 46]	–	–	–	–	EC50 (HRV16; H1-HeLa cells, 96 h, 33° C.; read-out: HRV16 HELA EC50): 0.487 µM; EC50 (RSV strain A2; HEp-2 cells, RSV A2, 4 days): 0.082 µM; EC50 (DENV2 replicon; Huh-7 replicon cells, 48 hours): > 20.8 µM; EC50 (RSV A2; NHBE cells, RSV A2, 4 days): 0.393 µM
